According to patent US10308685B2, “Inhibitory peptides of viral infection” (UNIVERSITY OF TENNESSEE RESEARCH FOUNDATION, priority 2014, dated 2019):
pIC50: −log10 of the molar value. Where a SMILES comes first, the peptide text is derived from it. Where no end group is shown, it is not given here.

What was measured:
[1] = tested on: MCMV; format: cell-based, Murine Cytomegalovirus; settings: for inhibition of MCMV infection (plaque reduction): 500 μg/ml, mouse embryonic fibroblasts incubated with peptide 30 min prior to virus
Protocol: Murine Cytomegalovirus (MCMV) RM4503 was cultured in vitro in MEF 10.1 cells. The virus stock was titered using plaque assay (described below) and stored at −80° C. Human Cytomegalovirus (HCMV) TB40/E was obtained from (46, 47) and cultures in vitro in HFF cells. The virus stock was titered using plaque assay and stored at −80° C. HSV-1 and HSV-2 were cultured in vitro in VERO cells. The virus stock was titered using plaque assay and stored at −80° C.
Peptides were screened for their ability to reduce viral infection using a plaque reduction assay. Cells were cultured in 12-well (VERO) or 24-well culture plates (MEF 10.1 and HFF). When the cells reached ˜80% confluence the media was removed and the cells washed once with PBS before addition of peptide. As a control, cells were incubated with PBS alone. After a 30 min of incubation with peptide in PBS, the virus was added and incubated for another 90 min (HSV and HCMV) or 60 min (MCMV). Following virus incubation the peptide/virus mixture was removed and replaced with 0.75% carboxy-methyl cellulose (Sigma Aldrich, St. Louis, Mo.)+complete media (CMC) or 0.5% agarose (Lonza, Rockland, Me.) in complete media. The plates were incubated at 37° C. in 5% CO2 for 4 days when plaques began to develop, following which they were stained with Coomassie stain (AMRESCO, Solon, Ohio). Plaques were counted manually and data analyzed using Prism 5.0 (GraphPad Software, La Jolla, Calif.). Data were expressed as % plaques relative to the average number of plaques in the PBS-treated wells.
In the initial screening assays all peptides were tested at a single concentration (500 μg/ml) using a plaque-reduction assay, in which mouse embryonic fibroblasts were incubated with the peptides for 30 min prior to the addition of virus.
In the infectivity assays described above the peptide and virus were co-incubated with the cells. Therefore to ensure the peptide was not directly inactivating the virus, MCMV was incubated with 100 μM (˜20× the IC50) peptide at 37° C. for 1 h, diluted to an ineffective peptide concentration (1 μM) and fibroblast infection rates measured.
To determine at which stage of the MCMV entry cycle the peptide interferes, four different peptide treatment protocols were tested, 1) 30 min. prior to infection (pre-adsorption) 2) simultaneously with virus (during adsorption) 3) after letting the virus adsorb to the cells at 4° C. for lhr (post adsorption) or 4) after allowing the virus to fuse with the cell membrane at 37° C. for lhr (post fusion) (FIG. 3(B)).

[2] = tested on: trypsin; assay: Proteolytic stability: trypsin incubation, then HCMV luciferase assay on MRC-5 cells; format: in vitro ADME; settings: 200 μM peptide, 200 μg/ml trypsin, 37° C., 30 and 60 minutes
Protocol: FIG. 8. Proteolytic stability of p5 and Dp5R. 200 μM of each peptide, CGGY-p5 (SEQ ID NO: 22) and GGGY-Dp5R (SEQ ID NO: 24, D form), was incubated with 200 μg/ml of trypsin for 30 minutes and 60 minutes then added to MRC-5 cells 30 minutes prior to the addition of virus. Data is representative of three separate experiments with three repeats ±SD.
Without wishing to be bound by any particular theory, this increased binding could be due to proteolytic stability of the D-form. Trypsin was thus used to test the proteolytic stability of p5 and Dp5R. More particularly, each peptide was incubated at 37° C. for 30 minutes and 60 minutes with 200 μg/ml of trypsin then added to cells 30 minutes before the addition of virus.

[3] = mouse, in vivo; cited from earlier work
[4] = biological target: HCMV expressing luciferase (Towne strain); format: cell-based, Human Cytomegalovirus; settings: MRC-5 cells, peptide 30 min prior to virus
Protocol: A recombinant luciferase-expressing Towne strain of HCMV was used for each experiment. To obtain the virus, the virus was cultured in vitro on HFF cells. The virus was titered using a standard plaque assay.
Cells were cultured according to methods known to those of skill in the art. Briefly, human fetal lung fibroblasts (MRC-5, ATCC) were cultured in minimum essential media (MEM, HyClone) supplemented with fetal bovine serum (FBS, HyClone), and L-glutamine. Human foreskin fibroblasts (HFF, ATCC) were cultured in dulbecco's modified eagle medium (DMEM, GE HyClone) supplemented with FBS, L-glutamine and sodium pyruvate. Human aortic endothelial cells were cultured in EGM-2 Bullet Kit (Lonza) supplemented with FBS. Human retinal pigment epithelia cells (ARPE-19) were cultured in DMEM and Hams F12 medium (Lonza) and supplemented with FBS.
Efficacy of viral reduction was measured using a luciferase assay with HCMV expressing luciferase virus. Cells were cultured in a 24-well plate until they reached ˜80% confluency. The cells were washed with phosphate buffered saline (PBS) then treated with peptide. The control cells were treated with PBS supplemented with FBS. After peptide incubation, virus was added (100 RLU for MRC-5, HFF and 1000 RLU for HAEC, ARPE-19) for 1 h. […] After the addition of LAR to the supernatant the luminescence was quantified using a plate reader (BioTek). […]

[5] = tested on: MEF 10.1 cells; assay: Visualization of bound biotinylated peptide on fixed MEF cells (fluorescence); format: binding, Mouse; settings: 1.6 μg/mL, streptavidin fluorescence
Protocol: Coverslips with fixed MEF cells prepared, washed in PBS and blocked with 1% BSA/PBS for 5 min. Following a PBS wash the nuclei were stained by using Hoechst (Life Technologies Molecular Probes, Grand Island, N.Y.) 1:100 in H2O— for 30 min at 37° C. Tissues were then blocked using a casein block solution (Scytek) for 5 min, AVIDIN/Biotin blocks (VECTOR, Burlingame, Calif.) for 20 min each at room temperature (RT) followed by a 5 min PBS wash. Biotinylated GGGY-p5+14 (SEQ ID NO: 25) or p5G (control) at 1.6 μg/mL in PBS was added and the tissues incubated overnight at 4° C. Following a PBS wash Alexa Fluor 594-conjugated streptavidin (Molecular Probes) was added at a 1:200 dilution in PBS for lhr at RT. Cells were then permeabilized by addition of 0.2% Triton X-100 (Sigma) in PBS for 10 min at RT and washed with a solution of 1% BSA in PBS for 30 min. The cells were then stained with Alexa Fluor 488-conjugated phalloidin (Molecular Probes) 1:100 dilution of stock in 1% BSA/PBS, for 45 min. at RT to visualize cytoskeleton. Slides were cover-slipped using a fluorescent mounting medium (Dako, Carpinteria, Calif.) to minimize photobleaching.

[6] = tested on: MCMV; assay: Interference of peptide mediated reduction by heparin (MCMV plaque reduction); format: cell-based, Murine Cytomegalovirus
Protocol: Peptide GGGY-p5+14 (SEQ ID NO: 25) (at 100 μM) was pre-incubated with heparin sodium salt (Acros Organics, NJ) at different concentrations for 1 h at 37° C. Following which the heparin/peptide mix was added to the cells and incubated for 30 min at 37° C. Following the incubation, the supernatant was aspirated and cells washed once with PBS to remove unbound/excess heparin or peptide. The cells were subsequently infected with ˜100 pfu/well of MCMV. To test whether heparin treatment of cells interferes with virus infection, MEF 10.1 cells in a 24 well dish were pre-incubated with different concentrations of heparin for 1 hour and washed as described above. Following the pre-incubation infection was initiated as mentioned above. Finally to test the effect of heparin treatment on the infectivity of virus, MCMV was incubated with different concentration of heparin for lhr before infecting cells. For all these treatments, the virus was removed lhr post infection and cells overlaid with CMC. Plates were incubated for 4 days before staining and counting the plaques. Plaque reduction assay was performed as mentioned above.

With “MPRRRRIRRRQK (Peptide G2 Synthetic Construct) [reference compound]” the “reduction in infection (MCMV)” value ([1]; 10 μM) was “ineffective” and the “inhibition of MCMV infection” value ([1]; 100 μM) was “effectively inhibited”.
In the case of “CGGYSLAQLAQALQALQAQLAQLAQALQALQ (Peptide CGGY-p5L Synthetic Construct)”, the “inhibition of MCMV infection (plaque reduction)” value (from here on “inhibition … (plaque reduction)”) [1] was “did not reduce MCMV infection”.
In the case of “CGGYSKAQKAQAKQAKQAQKAQKAQAKQAKQ [CGGY-p5]”, the “ability to reduce infection after incubation with trypsin” value [2] is given as “only able to reduce viral infection in cells when it had not been treated with trypsin”, the “peptide binding to GAGs expressed in healthy organs or tissues” value [3] is given as “no evidence of peptide binding to GAGs expressed in healthy organs or tissues” and the pIC50 [4] is given as roughly 4.22.
For `C[C@@H](NC(=O)[C@@H](CCC(N)=O)NC(=O)[C@@H](C)NC(=O)[C@@H](CCCNC(=N)N)NC(=O)[C@@H](CCC(N)=O)NC(=O)[C@@H](C)NC(=O)[C@@H](CCCNC(=N)N)NC(=O)[C@@H](CCC(N)=O)NC(=O)[C@@H](C)NC(=O)[C@@H](CCC(N)=O)NC(=O)[C@@H](CCCNC(=N)N)NC(=O)[C@@H](C)NC(=O)[C@@H](CCC(N)=O)NC(=O)[C@@H](CCCNC(=N)N)NC(=O)[C@@H](C)NC(=O)[C@@H](CCC(N)=O)NC(=O)[C@@H](C)NC(=O)[C@@H](CCCNC(=N)N)NC(=O)[C@@H](CCC(N)=O)NC(=O)[C@@H](C)NC(=O)[C@@H](CCCNC(=N)N)NC(=O)[C@@H](CO)NC(=O)[C@@H](Cc1ccc(O)cc1)NC(=O)CNC(=O)CNC(=O)CN)C(=O)N[C@H](CCCNC(=N)N)C(=O)N[C@H](CCC(N)=O)C(=O)N[C@H](C)C(=O)N[C@H](CCCNC(=N)N)C(=O)N[C@H](CCC(N)=O)C(=O)O` [GGGY-Dp5R] (HELM PEPTIDE1{G.G.G.[dY].[dS].[dR].[dA].[dQ].[dR].[dA].[dQ].[dA].[dR].[dQ].[dA].[dR].[dQ].[dA].[dQ].[dR].[dA].[dQ].[dR].[dA].[dQ].[dA].[dR].[dQ].[dA].[dR].[dQ]}$$$$V2.0; N-terminus and C-terminus assumed), the “ability to reduce infection after incubation with trypsin” value [2] was “retained its ability to reduce infection” and the pIC50 [4] was roughly 4.12.
For “GGGYSRAQRAQARQARQAQRAQRAQARQARQ (CGGY-p5R Peptide Synthetic Construct) [GGGY-p5R]”, the “blocks viral infection better compared to peptide p5 (CGGY-p5)” value ([1]; 500 μg/ml screen, FIG. 1(A)) was 4 fold.
For “CGGYSEAQEAQAEQAEQAQEAQEAQAEQAEQ (Peptide CGGY-p5e Synthetic Construct)”, the “inhibition … (plaque reduction)” value [1] was “did not reduce MCMV infection”.
In the case of “CGGYSGAQGAQAGQAGQAQGAQGAQAGQAGQ (also: biotinylated) [CGGY-p5G]”, the “binding to mouse fibroblasts in culture” value [5] was “did not bind to cells” and the “inhibition … (plaque reduction)” value [1] was “did not reduce MCMV infection”.
With heparin sodium salt the “MCMV infection after pre-incubation of the cells with heparin” value ([6]; cells pre-incubated with heparin 1 hour prior to virus addition) was “did not alter MCMV infection” and the “reduction of virus infection after pre-incubation of virus with heparin” value ([6]; heparin concentrations >2 μg/mL) was greater than 80%.
